According to US8394799B2, “Compounds that inhibit HIF-1 activity, the method for preparation thereof and the pharmaceutical composition containing them as an effective component” (Korea Research Institute of Bioscience and Biotechnology, priority 2006, dated 2013):

Tests used:
[1] = test system: HIF-1; assay: Assay of IC50, AGS cells (HRE-luciferase transfected); format: cell-based; conditions: Homo sapiens
Source text: (§1) Six tandem repeats of HRE (hypoxia Responsive Element 5′-ACGTG-3′), which is present in a human VEGF gene, was inserted into the multi-cloning region of a pGL3-basic vector (Promega) containing a luciferase gene as a reporter gene to produce a recombinant pGL3-HRE-luciferase vector which was then used to assay the compounds prepared in the above Examples for inhibition activity against HIF-mediated transcriptional activity.

[2] = test system: HIF-1; assay: HRE reporter assay, HIF activity % remaining, AGS cells; format: cell-based, human; conditions: summary in words of the data of Table 1 and Table 2; cell line not stated
Source text: as §1
The hepatocellular carcinoma cell line HepG2 or Hep3B, both available from ATCC (American Type Culture Collection), and the gastric carcinoma cell line AGS, available from ATCC, were grown at 70% confluency in culture dishes and co-transfected with an internal control vector (pRL-CMV, Promega) and the recombinant pGL3-HRE-luciferase vector using Lipofectamine Plus Reagent (Invitrogen). HepG2 and AGS cells were treated with the compound of Chemical Formula 1A while Hep3B and AGS cells were treated with the compound of Chemical Formula 1B. The compound of Chemical Formula 1A was used in a concentration of 10 μm for HepG2 or AGS cells. The compound of Chemical Formula 1B was used in a concentration of 30 μM for Hep3B and in a concentration of 10 μM for AGS cells. […] The compounds prepared in Examples above were assayed for inhibition activity against HIF-1 by measuring the activity of the luciferase, induced in hypoxia, using a Dual-luciferase reporter assay system (Promoga). In this regard, the luciferase activity was measured for 10 sec using a Microlumat Plus luminometer (EG&G Berthold). In the meanwhile, the renilla luciferase activity from the control vector PRL-CMV (Promega) was measured to normalize the data obtained.
On the basis of the renilla luciferase activity, the HIF activity % remaining after treatment with the compounds was corrected.

[3] = test system: EPO or VEGF; assay: Expression of EPO or VEGF, target genes of HIF-1, in hypoxia (RT-PCR); format: cell-based, human; conditions: RT-PCR, 0, 1, 3 and 10 μM, 12 hrs in 1% O2, FIG. 3
Source text: The inhibitory effect of the compounds of the present invention on HIF-1 activity was confirmed by assaying the compounds prepared in Examples for inhibition activity on the expression of EPO or VEGF, a representative target gene of HIF-1 through an analysis of RT-PCR (reverse transcriptase polymerase chain reaction). VEGF, a target gene of HIF-1, encodes an angiogenesis factor playing a pivotal role in the growth and metastasis of cancer and EPO is a hematosis hormone gene, and both genes have been known for being deeply related to the development and the aggravation of cancer. The compounds of the present invention were measured for inhibition of VEGF expression in AGS, Hep3B and HepG2 cells. In this regard, the hepatocellular carcinoma cell line Hep3B was treated with compounds prepared in Examples 18 and 126 as follows.
After being grown to 70% confluency in culture dishes, HepG2 cells (American Type Culture Collection) were treated with various concentrations (0 μm, 1 μm 3 μM and 10 μm) of compounds prepared in Examples 18, 44, 113 or 126 and incubated for 12 hrs in hypoxia (1% O2, 94%, N2, and 5% CO2, expressed as ‘1% O2’ in FIG. 2). Total RNA was isolated using an RNA Mini kit (Qiagen). From the total RNA (2 μg) thus obtained, cDNA was synthesized using an RT-PCR kit (Invitrogen), and was used to amplify EPO or VEGF by PCR in the presence of EPO or VEGF-specific primers. EPO or VEGF expression was quantitatively analyzed by running the PCR products on agarose gel. As an internal control, GAPDH was simultaneously amplified so as to analyze the selective inhibition of each compound for VEGF. Base sequences of primers used for the amplification of EPO, VEGF and GAPDH used in the present invention were as follows.

[4] = test system: HIF-1; assay: Assay of IC50, Hep3B cells (HRE-luciferase transfected); format: cell-based; conditions: Homo sapiens
Source text: as §1

[5] = test system: metastatic breast carcinoma cell line MDA-MB-435; assay: In vivo anticancer activity in nude mice implanted with MDA-MB-435; conditions: for inhibition of the growth of the cancer cells compared to the control: once a day, MDA-MB-435 in nude mice; for deaths in six mice of each group: mouse, in vivo
Source text: Female nude mice 5-6 weeks old (Crj:BALB/c nu/nu, Charles River) were bred in germ-free breeding rooms maintained at constant temperature and humidity. The nude mice were anesthetized before incision of the chest skin. The metastatic breast carcinoma cell line MDA-MB-435, obtained from DR D. R. Welch, Univ. Alabama, was implanted at a count of 10^6 cells/mouse into the mammary gland fat pad, and the incisions were then closed with surgical clips. The nude mice were divided into test groups and a control group, each consisting of 6 mice. […] For the control group, Solution A alone was used at a dose of 100 μl once a day. Thereafter, tumor volumes and body weights were measured once a week. Tumor volumes were calculated according to the following Mathematic Formula 1. Tumor Volume (mm^3)=(Length of Long Axis,mm)×(Length of Short Axis,mm)^2×0.5 <Mathematic Formula 1>

[6] = Acute toxicity, single oral administration in mice; conditions: mouse, in vivo, 300 mg/kg
Protocol: An acute cytotoxicity assay was conducted with five-week-old SPF C57BL/6 mice (Samtako BioKorea) as follows.

[7] = test system: HIF-1; assay: Assay of IC50, SK-Hep-1 cells (same manner); format: cell-based; conditions: Homo sapiens, SK-HEP1; SK-Hep-1 cell line, compounds 0.01 to 100 μM for 16 hrs
Source text: as §1

IC50 [7] [nM]	SMILES	IC50 [1] [nM]	inhibition activity against the transcription mediated by HIF-1, induced in hypoxia [2]	expression of EPO or VEGF in hypoxia [3]	IC50 [4] [nM]	inhibition of the growth of the cancer cells compared to the control ([5]; 20 mg/kg) [%]	inhibition of the growth of the cancer cells compared to the control ([5]; 50 mg/kg) [%]	deaths in six mice of each group [5]	toxicity (death, clinical syndromes, body weight, autopsy) [6]
–	O=C(COc1ccc(C23CC4CC(CC(C4)C2)C3)cc1)Nc1cccc(C(=O)O)c1 [Example 44, 3-[2-(4-Adamantan-1-yl-phenoxy)-acetylamino]-benzoic acid]	2500	excellent inhibition activity	inhibit the expression of EPO or VEGF dose-dependently	5000	–	–	–	–
–	COC(=O)c1ccc(O)c(NC(=O)COc2ccc(C34CC5CC(CC(C5)C3)C4)cc2)c1 [Example 18, 3-[2-(4-Adamantan-1-yl-phenoxy)acetyl-amino]-4-hydroxy benzoic acid methyl ester]	700	excellent inhibition activity	inhibit the expression of EPO or VEGF dose-dependently	2600	46.5	64.6	No dead were observed	no toxicity
590	NC(=O)c1ccnc(NC(=O)COc2ccc(C34CC5CC(CC(C5)C3)C4)cc2)c1 [Example 113, 2-[2-(4-adamantan-1-yl-phenoxy)acetylamino]-isonicotinamide]	–	excellent inhibition activity	inhibit the expression of EPO or VEGF dose-dependently	–	–	–	–	–
–	COC(=O)c1ccc2[nH]c(COc3ccc(C45CC6CC(CC(C6)C4)C5)cc3)nc2c1 [Example 126, 2-(4-adamantan-1-yl-phenoxymethyl)-1H-benzoimidazole-5-carboxylic acid methyl ester]	–	excellent inhibition activity	inhibit the expression of EPO or VEGF dose-dependently	–	53	58.6	No dead were observed	no toxicity
